From paper PMC5040251, “The Structure of Treponema pallidum Tp0751 (Pallilysin) Reveals a Non-canonical Lipocalin Fold That Mediates Adhesion to Extracellular Matrix Components and Interactions with Host Cells” (PLoS Pathogens, 2016) come the findings set out here.

Ends that are not written are not given here.

In the assay the target is T1, fibrinogen (Homo sapiens, UniProt P02671+P02675+P02679).
T1 construct: purchased Calbiochem, purchased from VWR International
T1 sequence (P02671 20-629 limits assumed): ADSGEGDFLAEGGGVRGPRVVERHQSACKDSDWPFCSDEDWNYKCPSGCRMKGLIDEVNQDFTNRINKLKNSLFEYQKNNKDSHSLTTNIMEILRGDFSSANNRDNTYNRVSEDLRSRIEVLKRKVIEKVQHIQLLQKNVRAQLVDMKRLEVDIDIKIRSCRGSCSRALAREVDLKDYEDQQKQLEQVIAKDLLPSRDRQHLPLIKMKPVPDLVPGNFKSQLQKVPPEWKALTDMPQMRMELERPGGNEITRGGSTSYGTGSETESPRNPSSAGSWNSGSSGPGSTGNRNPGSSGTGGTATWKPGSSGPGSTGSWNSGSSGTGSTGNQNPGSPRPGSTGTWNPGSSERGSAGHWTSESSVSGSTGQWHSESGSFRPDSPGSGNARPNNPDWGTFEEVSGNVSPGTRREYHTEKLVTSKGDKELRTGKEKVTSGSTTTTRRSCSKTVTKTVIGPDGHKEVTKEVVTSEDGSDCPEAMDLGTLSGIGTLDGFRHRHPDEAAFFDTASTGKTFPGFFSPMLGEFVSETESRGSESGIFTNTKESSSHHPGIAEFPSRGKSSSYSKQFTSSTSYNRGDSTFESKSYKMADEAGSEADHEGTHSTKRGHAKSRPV
T1 sequence (P02675 31-491): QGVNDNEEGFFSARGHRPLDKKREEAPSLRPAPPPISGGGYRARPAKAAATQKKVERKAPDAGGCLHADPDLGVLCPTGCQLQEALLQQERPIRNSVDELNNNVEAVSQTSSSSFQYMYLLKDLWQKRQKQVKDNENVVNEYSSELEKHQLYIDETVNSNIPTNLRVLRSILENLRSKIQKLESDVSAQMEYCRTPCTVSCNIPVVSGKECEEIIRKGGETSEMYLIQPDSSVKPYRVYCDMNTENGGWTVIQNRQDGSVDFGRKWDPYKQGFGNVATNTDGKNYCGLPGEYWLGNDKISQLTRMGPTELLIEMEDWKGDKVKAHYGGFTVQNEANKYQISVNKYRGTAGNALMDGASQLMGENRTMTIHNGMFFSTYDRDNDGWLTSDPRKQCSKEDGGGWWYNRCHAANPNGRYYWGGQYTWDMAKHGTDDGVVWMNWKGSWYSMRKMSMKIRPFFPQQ
T1 sequence (P02679 27-433 limits assumed): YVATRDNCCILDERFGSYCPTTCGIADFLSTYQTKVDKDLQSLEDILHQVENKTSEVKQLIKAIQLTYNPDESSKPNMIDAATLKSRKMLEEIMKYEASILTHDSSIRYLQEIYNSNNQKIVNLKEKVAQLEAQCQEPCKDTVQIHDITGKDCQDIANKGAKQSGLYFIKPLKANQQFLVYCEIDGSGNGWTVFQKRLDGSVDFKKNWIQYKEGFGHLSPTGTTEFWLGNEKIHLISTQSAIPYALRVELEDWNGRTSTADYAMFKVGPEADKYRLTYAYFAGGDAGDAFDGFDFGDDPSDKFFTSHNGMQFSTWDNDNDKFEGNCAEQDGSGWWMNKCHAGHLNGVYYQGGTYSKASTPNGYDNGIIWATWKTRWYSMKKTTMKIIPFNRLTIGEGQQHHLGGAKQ
The assay can be described thus: Initial (single point) binding screen of Tp0751 peptide library to immobilized fibrinogen. Particulars: absorbance 600 nm, three wells, two independent experiments, Student's two-tailed t-test against non-binding peptides. How it is done: Fig 3 Tp0751 lipocalin derived peptides directly bind host proteins. (A) Thirteen overlapping Tp0751 synthetic 24-mer peptides were evaluated for binding to immobilized fibrinogen, fibronectin, collagen type I, and collagen type IV. Average absorbance readings (600 nm) from three wells are presented with bars indicating standard error and the results are representative of two independent experiments. […] Average absorbance readings (600 nm) from three wells are presented with bars indicating standard error and the results are representative of two independent experiments. […] The strand colored in cyan reflects the overlap of p10 and p11. Color coded sequences of peptides p4, p6, p10, p10scr1, and p10scr2 are shown. Arginine residues in the p10 peptides are indicated by underlining.
Plasminogen-depleted human fibrinogen (Calbiochem) was purchased from VWR International. Laminin isolated from Engelbreth-Holm-Swarm murine sarcoma basement membrane and fibronectin isolated from human plasma were purchased from Sigma-Aldrich Canada Ltd. (Oakville, ON). Human collagen types I and IV (Rockland Immunochemicals, Inc.) were purchased from VWR International.
To test for binding of synthetic Tp0751 peptides p1-p13, p1scr, p6scr, p10scr1, and p10scr2 to the host proteins fibrinogen, fibronectin, laminin, collagen type I, and collagen type IV, initial binding assays were performed as described previously. For dose-dependent binding assays, recombinant proteins were serially diluted 1:2 from either 10 μM to 0.156 μm (Tp0751_78A used for crystallization and Tp0751_78 WT) or 40 μm to 0.625 μm (peptides p4, p6, p10, p11, p10scr1, and p10scr2). Average absorbance readings (600 nm) from three wells are presented with bars indicating standard error and the results are representative of two independent experiments. Plates were read at 600 nm with a BioTek enzyme-linked immunosorbent assay plate reader (Fisher Scientific, Ottawa, ON). All statistical analyses were performed using the Student’s two-tailed t-test. Non-linear regression curves were fitted and apparent dissociation constants (K d) were calculated using GraphPad Prism data analysis software (San Diego, CA).
Consider HHHHHHGGAAQTHTQPPVQTAMRIALWNRA [p4], for which the “Binding to fibrinogen in initial binding screen” value (“Binding to fibrinogen” for short) is recorded as “statistically significant binding”.
Take HHHHHHQGALQHLLAGLWIQTEISPNSGDI [p6]: the “Binding to fibrinogen” value is “statistically significant binding”.
Consider HHHHHHRKTVSFLTRNTAISSIRRRLEVTF [p10], for which the “Binding to fibrinogen” value was “significant binding”.
For HHHHHHSIRRRLEVTFESHEVIHVRAVEDV [p11] the value was “statistically significant binding”.
